Data as given in paper PMC12064818, “A general assay platform to study protein pharmacology using ligand-dependent structural dynamics” (Nature Communications, 2025).

Experiments:
P. pyralis FLuc = P. pyralis FLuc (Photinus pyralis, UniProt P08659); test: FLuc enzymatic luminescence assay, P. pyralis FLuc; type: biochemical; settings: FLuc enzymatic assay, Clade S follow-up; for IC50: read-out: IC50 or SDR50 (mM) FLuc E
Procedure, shortened: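 Runs with and without 10 µM ATP: compounds were pre-incubated with FLuc (1–10 nM, PBS pH 7.4) at ambient temperature, light-protected, for 30–60 min. Luminescence was imaged 5 min after adding 10 µM D-luciferin (final). Inhibition was scaled between DMSO neutral and no-enzyme controls.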

[1] = target: FLuc-C-HiBiT (firefly luciferase) (Photinus pyralis, UniProt P08659, form not given/L550V); test: SDR assay, FLuc-C-HiBiT; settings: SDR max. response, clade S
Sequence of FLuc-C-HiBiT (firefly luciferase) (P08659 2-550 L550V, form open): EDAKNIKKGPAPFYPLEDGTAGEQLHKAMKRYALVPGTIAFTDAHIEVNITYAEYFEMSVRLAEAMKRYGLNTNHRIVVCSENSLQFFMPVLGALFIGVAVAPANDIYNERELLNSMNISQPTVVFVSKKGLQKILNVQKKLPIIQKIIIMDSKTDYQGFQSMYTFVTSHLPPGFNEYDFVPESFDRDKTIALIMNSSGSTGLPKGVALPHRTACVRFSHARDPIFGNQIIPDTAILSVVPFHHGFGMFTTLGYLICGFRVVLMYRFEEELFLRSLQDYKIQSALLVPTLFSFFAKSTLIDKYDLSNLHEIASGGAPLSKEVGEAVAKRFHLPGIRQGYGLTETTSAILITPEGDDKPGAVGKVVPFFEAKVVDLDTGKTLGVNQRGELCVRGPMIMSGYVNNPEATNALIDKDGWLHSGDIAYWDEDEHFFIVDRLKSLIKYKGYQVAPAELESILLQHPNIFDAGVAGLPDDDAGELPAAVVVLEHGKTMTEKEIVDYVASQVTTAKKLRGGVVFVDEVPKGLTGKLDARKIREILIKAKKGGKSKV

[2] = target: FLuc-C-NLuc (firefly luciferase) (Photinus pyralis, UniProt P08659, form not given/L550V); test: SDR assay, FLuc-C-NLuc; settings: - ATP
Sequence of FLuc-C-NLuc (firefly luciferase) (P08659 2-550 L550V, form open): as above

NLuc = target: T1, NLuc (Oplophorus gracilirostris, UniProt Q9GV45, A31E/A60N/A81I/F95D/I117V/K70R/L54V/L99Q/M102K/N193R/P142E/Q151K/Q38R/Q45L/V71I/Y165I); type: biochemical; settings: - ATP
T1 construct: His tag (inferred from IMAC purification); made in house; host or cells: E. coli
T1 sequence (Q9GV45 other isoform, or with tags, fused parts or gaps with the stated changes): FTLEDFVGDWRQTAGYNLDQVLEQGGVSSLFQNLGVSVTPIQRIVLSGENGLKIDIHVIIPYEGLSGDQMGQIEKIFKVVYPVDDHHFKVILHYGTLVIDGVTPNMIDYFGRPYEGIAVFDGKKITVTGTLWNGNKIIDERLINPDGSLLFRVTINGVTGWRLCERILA
Procedure, shortened: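 Luminescence was read 10 min after Nano-Glo reagent addition. Enzyme was 1 nM NLuc in PBS/0.05% IGEPAL buffer, with or without ATP.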

Sequence of P. pyralis FLuc (P08659 whole entry): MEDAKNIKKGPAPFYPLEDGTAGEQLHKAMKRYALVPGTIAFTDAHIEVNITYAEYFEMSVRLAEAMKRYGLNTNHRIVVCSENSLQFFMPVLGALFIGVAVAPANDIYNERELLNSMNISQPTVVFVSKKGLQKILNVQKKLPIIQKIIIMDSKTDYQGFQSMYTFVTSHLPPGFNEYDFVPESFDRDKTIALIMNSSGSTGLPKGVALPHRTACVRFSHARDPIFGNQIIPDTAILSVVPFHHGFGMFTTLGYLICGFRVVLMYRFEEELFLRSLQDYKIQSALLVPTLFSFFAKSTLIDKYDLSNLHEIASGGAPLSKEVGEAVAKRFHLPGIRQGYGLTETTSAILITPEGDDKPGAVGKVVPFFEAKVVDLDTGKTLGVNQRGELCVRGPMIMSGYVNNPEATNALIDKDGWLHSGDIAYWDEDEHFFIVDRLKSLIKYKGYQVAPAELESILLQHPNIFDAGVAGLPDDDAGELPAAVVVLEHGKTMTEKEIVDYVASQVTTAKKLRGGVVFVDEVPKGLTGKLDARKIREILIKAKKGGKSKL

Row | SMILES | Efficacy (%) FLuc E (P. pyralis FLuc) | pIC50 or pSDR50 FLuc E (P. pyralis FLuc) | IC50 (P. pyralis FLuc) | % Activity (max response, + ATP) [1] | % Activity (max response, - ATP) [1] | Efficacy (%) FLuc-C-NLuc SDR (-ATP) [2] | Efficacy (%) NLuc (- ATP) (NLuc)
1 | Cc1ccc(C2Cn3cnc(C(=O)N4CCC(C(=O)NCCC5=CCCCC5)CC4)c3CO2)cc1 (stereo not shown) [NCGC00449883-01] | -54.72% | 5.01 | 0.00988 mM | 75.13% | 0.00% | 0.00% | 0.00%
2 | Cc1ccc(C2Cn3cnc(C(=O)N4CCC(C(=O)NCc5ccccc5)CC4)c3CO2)cc1 (stereo not shown) [NCGC00449884-01] | -51.95% | 4.96 | 0.0111 mM | 91.57% | 0.00% | 0.00% | -9.37%
3 | COc1cccc(CNC(=O)C2CCN(C(=O)c3ncn4c3COC(c3ccc(C)cc3)C4)CC2)c1 (stereo not shown) [NCGC00449886-01] | -31.42% | 4.91 | 0.0124 mM | 57.89% | 0.00% | 0.00% | -7.20%
4 | COc1ccc(CNC(=O)C2CCN(C(=O)c3ncn4c3COC(c3ccc(C)cc3)C4)CC2)cc1 (stereo not shown) [NCGC00449887-01] | -38.46% | 4.96 | 0.0111 mM | 80.81% | 0.00% | 0.00% | 0.00%
5 | Cc1ccc(C2Cn3cnc(C(=O)N4CCC(C(=O)NCc5ccccc5F)CC4)c3CO2)cc1 (stereo not shown) [NCGC00449888-01] | -37.08% | 4.91 | 0.0124 mM | 72.23% | 0.00% | 0.00% | 0.00%
6 | Cc1ccc(C2Cn3cnc(C(=O)N4CCC(C(=O)NCc5ccc(F)cc5)CC4)c3CO2)cc1 (stereo not shown) [NCGC00449889-01] | -57.95% | 5.01 | 0.00988 mM | 136.15% | 0.00% | 0.00% | 0.00%
7 | Cc1ccc(C2Cn3cnc(C(=O)N4CCC(C(=O)NCc5ccc(F)cc5F)CC4)c3CO2)cc1 (stereo not shown) [NCGC00449890-01] | -41.53% | 5.01 | 0.00988 mM | 88.58% | 0.00% | 0.00% | 0.00%
8 | Cc1ccc(C2Cn3cnc(C(=O)N4CCC(C(=O)NCc5ccccc5Cl)CC4)c3CO2)cc1 (stereo not shown) [NCGC00449891-01] | -50.12% | 4.96 | 0.0111 mM | 113.62% | 0.00% | 0.00% | 0.00%
9 | Cc1ccc(C2Cn3cnc(C(=O)N4CCC(C(=O)NCc5cccc(Cl)c5)CC4)c3CO2)cc1 (stereo not shown) [NCGC00449892-01] | -30.33% | 4.91 | 0.0124 mM | 61.41% | 14.19% | 0.00% | 0.00%
10 | Cc1ccc(C2Cn3cnc(C(=O)N4CCC(C(=O)NC(C)c5ccccc5)CC4)c3CO2)cc1 (stereo not shown) [NCGC00449895-01] | -61.76% | 4.96 | 0.0111 mM | 100.93% | 0.00% | 0.00% | -8.50%
11 | Cc1ccc(C2Cn3cnc(C(=O)N4CCC(C(=O)NCCc5ccccc5)CC4)c3CO2)cc1 (stereo not shown) [NCGC00449896-01] | -32.41% | 4.91 | 0.0124 mM | 46.98% | 0.00% | 0.00% | 10.33%
12 | Cc1ccc(C2Cn3cnc(C(=O)N4CCC(C(=O)NCCCc5ccccc5)CC4)c3CO2)cc1 (stereo not shown) [NCGC00449897-01] | -69.05% | 5.01 | 0.00988 mM | 151.61% | -10.39% | 0.00% | 0.00%
13 | Cc1ccc(C2Cn3cnc(C(=O)N4CCC(C(=O)NCc5ccccc5C)CC4)c3CO2)cc1 (stereo not shown) [NCGC00449898-01] | -44.97% | 4.96 | 0.0111 mM | 110.64% | 0.00% | 0.00% | 0.00%
14 | Cc1ccc(C2Cn3cnc(C(=O)N4CCC(C(=O)NCc5cccc(F)c5)CC4)c3CO2)cc1 (stereo not shown) [NCGC00449899-01] | -43.90% | 5.01 | 0.00988 mM | 60.19% | 0.00% | 0.00% | 0.00%
15 | Cc1ccc(C2Cn3cnc(C(=O)N4CCC(C(=O)NCc5cc(F)ccc5F)CC4)c3CO2)cc1 (stereo not shown) [NCGC00449900-01] | -40.44% | 4.96 | 0.0111 mM | 59.08% | 0.00% | 0.00% | 0.00%
16 | Cc1ccc(NC(=O)C2CCN(C(=O)c3ncn4c3COC(c3ccccc3)C4)CC2)cc1C (stereo not shown) [NCGC00449904-01] | -72.15% | 5.01 | 0.00988 mM | 306.70% | 0.00% | 0.00% | 0.00%
17 | CCc1cccc(NC(=O)C2CCN(C(=O)c3ncn4c3COC(c3ccccc3)C4)CC2)c1 (stereo not shown) [NCGC00449906-01] | -98.95% | 5.76 | 0.00176 mM | 357.78% | 0.00% | 0.00% | 0.00%
18 | CCc1ccc(NC(=O)C2CCN(C(=O)c3ncn4c3COC(c3ccccc3)C4)CC2)cc1 (stereo not shown) [NCGC00449907-01] | -99.55% | 5.16 | 0.00699 mM | 288.22% | 0.00% | 0.00% | 0.00%
19 | O=C(Nc1ccccc1)C1CCN(C(=O)c2ncn3c2COC(c2ccc(F)cc2)C3)CC1 (stereo not shown) [NCGC00449920-01] | -13.92% |  |  | 29.50% | 0.00% | 0.00% | 0.00%
20 | CCc1ccc(NC(=O)C2CCN(C(=O)c3ncn4c3COC(c3ccc(F)cc3)C4)CC2)cc1 (stereo not shown) [NCGC00449925-01] | -32.74% | 4.96 | 0.0111 mM | 47.34% | 0.00% | 0.00% | 0.00%
21 | CC(C)c1ccc(NC(=O)C2CCN(C(=O)c3ncn4c3COC(c3ccc(F)cc3)C4)CC2)cc1 (stereo not shown) [NCGC00449927-01] | -23.88% | 4.86 | 0.0139 mM | 35.93% | 0.00% | 0.00% | 0.00%
22 | Cc1ccc(NC(=O)C2CCN(C(=O)c3ncn4c3COC(c3ccc(F)cc3)C4)CC2)c(C)c1 (stereo not shown) [NCGC00449930-01] | -45.61% | 4.96 | 0.0111 mM | 67.53% | 0.00% | 0.00% | 0.00%
23 | O=C(Nc1ccc(F)cc1)C1CCN(C(=O)c2ncn3c2COC(c2ccc(F)cc2)C3)CC1 (stereo not shown) [NCGC00449939-01] | -56.35% | 5.01 | 0.00988 mM | 72.23% | 0.00% | 0.00% | 0.00%
24 | O=C(Nc1ccc(F)c(F)c1)C1CCN(C(=O)c2ncn3c2COC(c2ccc(F)cc2)C3)CC1 (stereo not shown) [NCGC00449940-01] | -73.07% | 4.96 | 0.0111 mM | 125.80% | 0.00% | 0.00% | 0.00%
